We go through two molecules from patent US20150297619A1, “METHODS AND COMPOSITIONS FOR PRESERVING THE MUCOSAL BARRIER” (priority 2014, published 2015).

Assay [1] has as its system ischemic small intestine segments (jejunum to ileum). Description: Ex vivo intestinal ischemia: transmural fluorescein transport across wall of flushed intestinal segments. Set-up: species or system rat. The source says: Intestinal Ischemia—Since intestinal properties are non-homogenous, the transmural permeability was investigated over the entire length of the jejunum and ileum. Due to physical constraints of the small intestine anatomy, it is not feasible to simultaneously analyze permeability from multiple segments in vivo. Therefore, an ex vivo approach similar to previously published studies was designed to measure permeability along the length of the small intestine.
A midline incision was made to expose the intestine in anesthetized rats. The proximal end of the jejunum (approximately 5 cm distal from the ligament of Treitz) was cannulated with a female luer to barb tube connector (⅛″ inner diameter). The intestine was removed and placed in saline immediately before euthanasia. In order to focus the analysis on permeability of the intestinal wall during ischemia in the absence of luminal contents (including the digestive proteases or cytotoxic factors from food), the lumen of the intestine was flushed with 40 ml saline using pulsatile pressure. Visual examination confirmed all solid contents were removed. Next, the intestine was cut into eight equal length segments (˜8 cm) sequentially ordered from the proximal jejunum (position 1) to the distal ileum (position 8). Both ends of each segment were cannulated with Female Luer to Barb tube connectors (thus allowing entry and exit points from the intestinal lumen to be sealed completely), secured with 4-0 suture, and the exterior portion of one adaptor on each segment sealed with clay.
To determine the transmural permeability of the intestine, all 8 segments from each animal were filled with a low molecular weight tracer as a sensitive measure of early barrier breakdown prior to the initiation of ischemia, fluorescein (332 Da M.W., 20 μg/ml from 5 mg/ml stock in ethanol; 0.308 osm/L; Sigma-Aldrich, St. Louis, Mo.) mixed with saline, glucose (100 mg/ml in saline; 0.550 moles/L; 0.863 osm/L, Sigma-Aldrich), the non-metabolizing glucose analog mannitol (100 mg/ml in saline; 0.550 moles/L; 0.863 osm/L), the serine protease inhibitor tranexamic acid (31 mg/ml in saline; 0.200 moles/L; 0.508 osm/L, Sigma-Aldrich), the MMP inhibitor doxycycline hyclate (1 mg/ml in saline; 1.955×10^−3 moles/L; 0.310 osm/L, Sigma-Aldrich), or the MMP inhibitor GM 6001 [38] (1 μg/ml in saline from 1 mg/ml stock in DMSO; 2.57×10^−6 moles/L; 0.308 osm/L, Millipore, Billerica, Md.). […]
Sealed segments were rinsed in saline, individually placed in 15 ml conical tubes containing 6 ml saline, and incubated at 37° C. for 2 hours to simulate ischemic conditions. […] Plates were read in a plate reader (FilterMax F-5 Multi-mode, Molecular Devices, Sunnyvale, Calif.) for concentration of fluorescein (excitation 494/emission 521) to measure diffusion across the wall of the intestine.
Permeability Analysis—To determine the fluorescein transport across the ischemic intestinal wall, the fluorescence at time 0 was subtracted from fluorescence values at later time points to correct for background, and fluorescence values were corrected to account for the volume reduction due to sampling during the experiment. The RFU measurements were converted to equivalent moles by using the linear relationship between concentration and fluorescein fluorescence (not shown, R^2=0.999). The transport of fluorescein across the wall (measured in moles, per time) was computed as the change in fluorescence over a 30 min interval divided by 30 min.

The subject of a further assay is hemorrhagic shock. Nature of the assay: Hemorrhagic shock with enteral/IV/IP treatments: intestine, plasma and lung injury (Example 2). The class given is in vivo, rat. How it is done:
Adult male Sprague Dawley rats (mean±standard deviation (SD) body weight 340±60 g, N=64, Harlan, Indianapolis, Ind.) were allowed food and water ad libitum prior to surgery. Rats were administered general anesthesia (xylazine, 4 mg/kg; ketamine 75 mg/kg IM) and remained anesthetized throughout the experiment. At the termination of experiments, rats were euthanized by infusion of B-Euthanasia IV (120 mg/kg). The femoral artery and vein were cannulated. Systolic, diastolic, heart rate, and mean arterial pressure (MAP) were recorded throughout the procedure using LabChart (AD Instruments, Dunedin, New Zealand).
Hemorrhagic Shock (HS) with Removal of Luminal Contents—Animals were grouped into no-HS (No-HS), HS with intestinal luminal contents flushed (HS-F), and HS without intestinal flush (HS-NF). No-HS animals were immediately sacrificed for tissue collection following cannulation. All other animals were subject to laparotomy before the intestine was exposed and gross morphology was photographically recorded. Enteral treatments were administered to the intestine before returning to the peritoneal cavity (Table 1). IV/IP injections were delivered following the intestinal injections.
Following the intestinal preparations, the animals were heparinized to minimize clotting in catheters and in shed blood samples (1 U/mL of calculated blood volume i.v.; assuming 6 mL blood volume per 100 g total body weight) before onset of hemorrhage. MAP was reduced to 30 mmHg by withdrawal of blood through the venous catheter (0.4 mL/min) with a 5 mL syringe. The initial 1 mL of blood drawn was collected, centrifuged (1000 g, 5 min), and the plasma was immediately frozen at […] for further analysis. The arterial pressure was monitored and adjusted by withdrawal/return of blood over the 90-min ischemic period. At the end of ischemia, the shed blood was returned to the animals (0.5 mL/min) plus 1 mL of saline (to replace the 1 mL of blood collected before shock).
Gross morphology images of the intestine were captured at the end of the reperfusion period. Post-HS blood was collected through the arterial catheter, spun (1000 g, 5 min), and the plasma was immediately frozen at […]. The animals were then euthanized and lung and jejunum specimen were snap frozen for homogenization or embedded in optimum cutting temperature (O.C.T.) (Saukura, Leiden, the Netherlands) for histological sectioning. Jejunum was chosen for analysis, as more intestinal hemorrhage is typically seen there than in the ileum in models of HS.
After hemorrhagic shock, bronchoalveolar lavage fluid (BALF) was collected by inserting an 18 gauge blunt needle into the left main bronchus of the left lung. The lunch was photographed to assess gross morphological damage. The images were blindly assessed for macroscopic lung damage. Scoring was as follows: 0, no visible lung damage and pink in color; 1, mostly pink in color with some dark red lesions starting to form around the central part of the lung near the trachea; 2, some pink color with more lesions forming and spreading throughout the lung; 3, dark red lesions through the majority of the lung surface; 4, complete lung damage in all parts of the organ surface.
To collect BALF fluid, saline (˜2.0 ml/lavage) was injected and recovered three times before centrifugation (1000 g, 5 min). Following the third wash, the lung was injected with O.C.T., embedded, and frozen. The total volume of recovered BALF fluid was measured and the fraction of saline recovered versus the amount injected was used to normalize all measurements.
Intestinal Hemorrhage—Segments of jejunum were mechanically homogenized by weight (10 ml per 1 g; 18,000 g, 20 min; stored at −80° C.) in 0.5% hexadecyltrimethyl-ammonium bromide (HTAB) in PBS (pH 6.0). Any luminal content present in the segment was included in the weighing and homogenization. […]

Each structure is given as a SMILES string.

In the case of `O=C[C@H](O)[C@@H](O)[C@H](O)[C@H](O)CO` [Glucose, glucose], the “fluorescein transport across the wall of the intestine” value in assay [1] (ex vivo, treatment in lumen, two-hour ischemic period) is “drastically reduced”. Besides, in the assay with hemorrhagic shock (after HS), the “MPO activity of intestinal homogenates” value is on record as “tended to be lower”, the “gross morphology of the intestine (microhemorrhages)” value is “microhemorrhages most severely” and the “macroscopic lung injury (lung injury score)” value was “trend in reduction”. In addition, the “plasma MMP-9 and neutrophil derived pro-MMP-9 activity” value in the assay with hemorrhagic shock (post-HS plasma, gel zymography) is reported as “significantly more activity compared to HS+SAL”.

On to `NC[C@H]1CC[C@H](C(=O)O)CC1` [tranexamic acid], for which the “fluorescein transport rates, 30-60 min and 60-90 min periods” value in assay [1] (ex vivo ischemia, inhibitor in lumen without glucose, vs saline) was “significantly decreased compared to the saline treated intestines”. In the assay on hemorrhagic shock (after HS), the “MPO activity of intestinal homogenates” value was “tended to be lower” and the “gross morphology of the intestine (microhemorrhages)” value is reported as “fewer regions with microhemorrhages”. For the same molecule, in the assay on hemorrhagic shock (after HS, immunoblot), the “lung VE-cadherin levels” value is “significantly reduced” and the “lung VEGFR-2 levels” value was “maintained”.
